Measured values from US8546381B2, “Bridged heterocyclic compounds and methods of use” (Medivation Technologies, Inc., priority 2008, dated 2013).

What was measured:
[1] = biological target: T1, human recombinant adrenergic α2A receptor (Homo sapiens, UniProt P08913); assay: Adrenergic α2A radioligand binding ([3H]MK-912); conditions: for inhibition at 1 µM: read-out: Adrenergic α2A, inhibition of ligand binding (1 μM)
T1 construct: expressed in transfected cells; host or cells: insect Sf9 cells
T1 sequence (P08913 1-465): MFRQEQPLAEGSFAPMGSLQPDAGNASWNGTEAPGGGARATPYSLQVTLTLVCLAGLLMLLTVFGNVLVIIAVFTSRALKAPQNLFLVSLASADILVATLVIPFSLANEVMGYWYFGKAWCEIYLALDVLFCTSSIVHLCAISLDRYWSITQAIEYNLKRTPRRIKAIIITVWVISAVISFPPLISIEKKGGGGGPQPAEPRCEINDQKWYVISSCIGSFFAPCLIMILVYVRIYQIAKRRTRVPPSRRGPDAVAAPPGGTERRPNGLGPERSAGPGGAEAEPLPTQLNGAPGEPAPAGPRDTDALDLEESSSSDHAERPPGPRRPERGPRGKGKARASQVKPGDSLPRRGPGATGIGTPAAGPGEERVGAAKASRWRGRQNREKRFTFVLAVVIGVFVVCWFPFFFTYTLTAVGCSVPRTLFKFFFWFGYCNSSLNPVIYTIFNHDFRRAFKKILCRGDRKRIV
Method: To evaluate in radioligand binding assays the activity of compounds of the invention, human recombinant adrenergic α2A receptor expressed in insect Sf9 cells (Uhlen S et al. J Pharmacol Exp Ther. 271:1558, 1994) in a modified Tris-HCl buffer (50 mM Tris-HCl, pH 7.4, 12.5 mM MgCl2, 2 mM EDTA) was used. Compounds of invention were incubated with 1 nM [^3H]MK-912 for 60 minutes at 25° C. MK912 is (2S-trans)-1,3,4,5′,6,6′,7,12b-octahydro-1′,3′-dimethyl-spiro[2H-benzofuro[2,3-a]quinolizine-2,4′(1′H) -pyrimidin]-2′(3′H)-one hydrochloride Non-specific binding was estimated in the presence of 10 μM WB-4101 (2-(2,6-Dimethoxyphenoxyethyl)aminomethyl-1,4-benzodioxane hydrochloride). Receptor proteins were filtered and washed, the filters were then counted to determine [^3H]MK-912 specifically bound. Compounds were screened at 1 μM or lower, using 1% DMSO as vehicle. Biochemical assay results are presented as the percent inhibition of specific binding in Table 3.

[2] = biological target: T2, human recombinant histamine H2 receptor (Homo sapiens, UniProt P25021); assay: Histamine H2 radioligand binding ([125I]Aminopotentidine); conditions: compound at 1 μM, inhibition of specific [125I]Aminopotentidine binding; for inhibition at 1 µM: read-out: Histamine Binding (1 μM) H2, Percentage Inhibition
T2 construct: expressed in transfected cells; host or cells: CHO-K1 cells
Method: To evaluate in radioligand binding assays the activity of compounds of the invention, human recombinant histamine H2 receptor expressed in Chinese hamster ovary (CHO) K1 cells (Ruat, M., Proc. Natl. Acad. Sci. USA. 87(5):1658, 1990) in a 50 mM Phosphate buffer, pH 7.4 was used. Compounds of the invention were incubated with 0.1 nM [^125I]Aminopotentidine for 120 minutes at 25° C. Non-specific binding was estimated in the presence of 3 μM Tiotidine. Receptor proteins were filtered and washed, the filters were then counted to determine [^125I]Aminopotentidine specifically bound. Compounds were screened at 1 μM or lower, using 1% DMSO as vehicle. Biochemical assay results are presented as the percent inhibition of specific binding in Table 2.

[3] = biological target: T3, human recombinant adrenergic α2B receptor (Homo sapiens, UniProt P18089); assay: Adrenergic α2B radioligand binding ([3H]Rauwolscine); conditions: for inhibition at 1 µM: read-out: Adrenergic α2B, inhibition of ligand binding (1 μM)
T3 construct: expressed in transfected cells; host or cells: CHO-K1 cells
T3 sequence (P18089 1-450): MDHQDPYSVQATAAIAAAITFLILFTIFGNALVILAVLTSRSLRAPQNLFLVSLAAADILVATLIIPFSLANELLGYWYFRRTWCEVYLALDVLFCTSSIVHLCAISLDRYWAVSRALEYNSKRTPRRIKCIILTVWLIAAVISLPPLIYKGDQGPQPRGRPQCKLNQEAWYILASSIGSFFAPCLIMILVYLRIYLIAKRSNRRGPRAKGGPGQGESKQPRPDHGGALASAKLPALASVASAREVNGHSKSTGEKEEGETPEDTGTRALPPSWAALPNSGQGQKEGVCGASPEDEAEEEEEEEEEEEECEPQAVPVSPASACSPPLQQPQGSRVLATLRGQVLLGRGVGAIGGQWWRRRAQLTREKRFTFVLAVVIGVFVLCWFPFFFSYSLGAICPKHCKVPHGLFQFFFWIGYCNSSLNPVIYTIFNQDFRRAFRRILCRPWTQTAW
Method: To evaluate in radioligand binding assays the activity of compounds of the invention, human recombinant adrenergic α2B receptor expressed in Chinese hamster ovary (CHO-K1) cells (Uhlen S et al. Eur J. Pharmacol. 343(1):93, 1998) in a modified Tris-HCl buffer (50 mM Tris-HCl, pH 7.4, 12.5 mM MgCl2, 1 mM EDTA, 0.2% BSA) was used. Compounds of the invention were incubated with 2.5 nM [^3H]Rauwolscine for 60 minutes at 25° C. Non-specific binding was estimated in the presence of 10 μM Prozosin. Receptor proteins were filtered and washed, the filters were then counted to determine [^3H]Rauwolscine specifically bound. Compounds were screened at 1 μM or lower, using 1% DMSO as vehicle. Biochemical assay results are presented as the percent inhibition of specific binding in Table 3.

[4] = biological target: T4, human recombinant dopamine D2L receptor (Homo sapiens, UniProt P14416); assay: Dopamine D2L radioligand binding ([3H]Spiperone); conditions: read-out: Dopamine (1 μM) D2L, inhibition of ligand binding
T4 construct: expressed in transfected cells; host or cells: CHO cells
Method: To evaluate in radioligand binding assays the activity of compounds of the invention, human recombinant dopamine D2L receptor expressed in Chinese hamster ovary (CHO) cells (Grandy, D. K. et al. Proc. Natl. Acad. Sci. USA. 86:9762, 1989; Hayes, G. et al., Mol. Endocrinol. 6:920, 1992) in a modified Tris-HCl buffer (50 mM Tris-HCl, pH 7.4, 1.4 mM Ascorbic Acid, 0.001% BSA, 150 mM NaCl) was used. Compounds of the invention were incubated with 0.16 nM [^3H]Spiperone for 120 minutes at 25° C. Non-specific binding was estimated in the presence of 10 μM Haloperidol. Receptor proteins were filtered and washed, the filters were then counted to determine [^3H]Spiperone specifically bound. Compounds were screened at 1 μM or lower, using 1% DMSO as vehicle. Biochemical assay results are presented as the percent inhibition of specific binding in Table 3.

T4 sequence (P14416 whole entry): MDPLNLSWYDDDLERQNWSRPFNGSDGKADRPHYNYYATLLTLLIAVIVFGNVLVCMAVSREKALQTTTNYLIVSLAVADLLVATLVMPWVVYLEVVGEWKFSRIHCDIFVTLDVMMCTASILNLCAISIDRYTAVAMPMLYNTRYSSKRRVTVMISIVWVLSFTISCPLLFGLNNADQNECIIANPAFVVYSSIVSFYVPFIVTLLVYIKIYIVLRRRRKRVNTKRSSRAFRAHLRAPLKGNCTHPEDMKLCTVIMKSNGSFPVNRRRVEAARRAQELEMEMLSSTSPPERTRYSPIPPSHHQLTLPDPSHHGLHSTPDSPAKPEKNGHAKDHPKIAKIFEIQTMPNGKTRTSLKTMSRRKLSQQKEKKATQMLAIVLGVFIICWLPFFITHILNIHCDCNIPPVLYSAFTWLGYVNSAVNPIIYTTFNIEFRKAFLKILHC
T2 sequence (P25021 whole entry): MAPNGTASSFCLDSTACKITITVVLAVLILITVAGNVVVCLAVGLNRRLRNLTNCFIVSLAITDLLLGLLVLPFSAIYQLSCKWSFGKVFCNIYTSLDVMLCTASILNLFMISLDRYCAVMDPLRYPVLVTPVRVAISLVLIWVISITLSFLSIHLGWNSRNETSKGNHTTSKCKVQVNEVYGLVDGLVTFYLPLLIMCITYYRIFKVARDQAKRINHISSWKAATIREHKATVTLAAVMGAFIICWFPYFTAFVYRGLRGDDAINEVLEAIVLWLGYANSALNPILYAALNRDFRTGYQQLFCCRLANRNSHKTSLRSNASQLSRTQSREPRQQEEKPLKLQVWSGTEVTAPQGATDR

Row | Compound | inhibition at 0.01 µM ([1]; 10.0 nM, read-out: Adrenergic α2A, inhibition of ligand binding (10.0 nM)) [%] | inhibition at 0.1 µM ([1]; 0.1 μM, read-out: Adrenergic α2A, inhibition of ligand binding (0.1 μM)) [%] | inhibition at 1 µM [1] [%] | inhibition at 1 µM [2] [%] | inhibition at 0.01 µM ([3]; 10.0 nM, read-out: Adrenergic α2B, inhibition of ligand binding (10.0 nM)) [%] | inhibition at 0.1 µM ([3]; 0.1 μM, read-out: Adrenergic α2B, inhibition of ligand binding (0.1 μM)) [%] | inhibition at 1 µM [3] [%] | inhibition at 1 µM [4] [%] | Adrenergic α2A, inhibition of ligand binding (1 μM) [1] [%] | Histamine Binding (1 μM) H2, Percentage Inhibition ([2]; 1 µM) [%] | Adrenergic α2B, inhibition of ligand binding (1 μM) [3] [%]
1 | Cc1ccc2c(c1)c1c(n2CCc2ccccc2)CC2CCC1N2C (stereo not shown) [Compound 2] | 47 | 88 | 100 | 43 | 85 | 108 | 98 |  |  |  | 
2 | CN1C2CCC1c1c(n(CCC(=O)N3CCNC(=O)C3)c3ccc(Cl)cc13)C2 (stereo not shown) [Compound 3] |  |  | 8 | 2 |  |  | -17 | -3 |  |  | 
3 | CN1C2CCC1c1c(n(CCC(=O)N3CCCC3)c3ccc(Cl)cc13)C2 (stereo not shown) [Compound 5] |  |  | 4 | -9 |  |  | 30 | 10 |  |  | 
4 | CC(=O)N1CCN(C(=O)CCn2c3c(c4cc(Cl)ccc42)C2CCC(C3)N2C)CC1 (stereo not shown) [Compound 8] |  |  | -2 | 9 |  |  | -9 | 1 |  |  | 
5 | CN1C2CCC1c1c(n(CCC(=O)N3CCNCC3)c3ccc(Cl)cc13)C2 (stereo not shown) [Compound 9] |  |  | 9 | 3 |  |  | -15 | 7 |  |  | 
6 | CN1C2CCC1c1c(n(CCC(=O)N3CC[S+]([O-])CC3)c3ccc(Cl)cc13)C2 (stereo not shown) [Compound 10] |  |  | -7 | 1 |  |  | 7 | -2 |  |  | 
7 | CN1C2CCC1c1c(n(CCC(=O)N3CCS(=O)(=O)CC3)c3ccc(Cl)cc13)C2 (stereo not shown) [Compound 11] |  |  | -10 | 9 |  |  | 1 | 2 |  |  | 
8 | CN1C2CCC1c1c(n(CCC(=O)N3CCSCC3)c3ccc(Cl)cc13)C2 (stereo not shown) [Compound 12] |  |  | 0 | -2 |  |  | 10 | -4 |  |  | 
9 | CN1C2CCC1c1c(n(CCC(=O)N3CCOCC3)c3ccc(Cl)cc13)C2 (stereo not shown) [Compound 13] |  |  | 2 | -2 |  |  | 7 | 13 |  |  | 
10 | Cc1ccc2c(c1)c1c(n2CCc2ccc(C)nc2)CC2CCC1N2C (stereo not shown) [Compound 32] |  |  | 17 | 13 |  |  | 82 | 10 |  |  | 
11 | CN1C2CCC1c1c(n(CCc3ccc(Cl)cc3)c3ccc(F)cc13)C2 (stereo not shown) [Compound 33] |  |  | 69 | 18 |  |  | 100 | 17 |  |  | 
12 | CN1C2CCC1c1c(n(CCc3ccc(C(F)(F)F)nc3)c3ccc(Cl)cc13)C2 (stereo not shown) [Compound 34] |  |  | 42 | 12 |  |  | 103 | -0.875 | 39.0 | 24.0 | 100.0
13 | CN1C2CCC1c1c(n(CCc3ccc(F)cc3)c3ccc(F)cc13)C2 (stereo not shown) [Compound 35] |  |  | 93 | 27 |  |  | 110 | 67 |  |  | 
14 | CN1C2CCC1c1c(n(CCCc3ccc(C(F)(F)F)nc3)c3ccc(Cl)cc13)C2 (stereo not shown) [Compound 37] |  |  | 10 | 7 |  |  | 51 | 2 |  |  | 
15 | Cc1ccc(CCCn2c3c(c4cc(Cl)ccc42)C2CCC(C3)N2C)cn1 (stereo not shown) [Compound 38] |  |  | 33 | 9 |  |  | 76 | -5 |  |  | 
16 | CN1C2CCC1c1c(n(CCCc3ccc(Cl)cc3)c3ccc(Cl)cc13)C2 (stereo not shown) [Compound 39] |  |  | 68 | 86 |  |  | 54 | 2 |  |  | 
17 | Cc1ccc(C(O)Cn2c3c(c4cc(Cl)ccc42)C2CCC(C3)N2C)cn1 (stereo not shown) [Compound 52] |  |  | 46 | 2 |  |  | 85 | 10 |  |  | 
18 | Cc1ccc2c(c1)c1c(n2CC(C)(O)c2ccc(Cl)cc2)CC2CCC1N2C (stereo not shown) [Compound 54] |  |  | 75 | 50 |  |  | 94 | 14 |  |  | 
19 | Cc1ccc2c(c1)c1c(n2CCc2ccccc2)CC2CCCC1N2C (stereo not shown) [Compound 56] |  |  | 92 | 16 |  |  | 100 |  |  |  | 
20 | CN1C2CCC1c1c(n(CCc3ccc(F)cc3)c3ccc(Cl)cc13)C2 (stereo not shown) [Compound 57] |  |  | 96 | 37 |  |  | 98 |  |  |  | 
21 | CN1C2CCC1c1c(n(CCc3ccc(Cl)cc3)c3ccc(Cl)cc13)C2 (stereo not shown) [Compound 58] |  |  | 98 | 52 |  |  | 99 |  |  |  | 
22 | CN1C2CCC1c1c(n(CC(=O)N3CCOCC3)c3ccc(Cl)cc13)C2 (stereo not shown) [Compound 59, 2-(2-chloro-11-methyl-5,6,7,8,9,10-Hexahydro-7,10-iminocyclohept[b]indol-5-yl)-1-morpholinoethanone] |  |  | 17 | 15 |  |  | 20 | 6 |  |  | 
23 | CN1C2CCC1c1c(n(CC(=O)N3CCCC3)c3ccc(Cl)cc13)C2 (stereo not shown) [Compound 60] |  |  | 2 | 3 |  |  | 5 | 0 |  |  | 
24 | Cc1ccc2c(c1)c1c(n2CCc2ccc(C(F)(F)F)nc2)CC2CCC1N2C (stereo not shown) [Compound 71] |  |  | 28 |  |  |  | 99 | -2 | 48.0 |  | 98.0
